PubChem BioAssay AID1259407 (Chemical Carcinogenesis Research Information System (CCRIS), 2018)
Calls of active or inactive are those of the source. How the calls were made is not given here.

Test system: CCRIS mutagenicity, Ames/micronucleus/aberration tests
Experiment: CCRIS mutagenicity studies

Compound: O=c1ccc2ccccc2o1
- mutagenic call (End Point: IN VITRO CHROMOSOMAL ABERRATIONS, Test System: CHINESE HAMSTER OVARY CELLS, Metabolic Activation: NONE): inactive; negative
- mutagenic call (End Point: IN VITRO CHROMOSOMAL ABERRATIONS, Test System: CHINESE HAMSTER OVARY CELLS, Metabolic Activation: RAT, LIVER, S-9, AROCLOR 1254): active; positive
- mutagenic call (End Point: IN VIVO MICRONUCLEUS, Test System: BONE MARROW CELLS, Species: MOUSE, Strain/Sex: SWISS/MALE, FEMALE, Route: GAVAGE): inactive; negative
- mutagenic call (Test System: AMES SALMONELLA TYPHIMURIUM, Strain/Indicator: TA98, Metabolic Activation: HAMSTER, LIVER, S-9, AROCLOR 1254 (10%), Method: PREINCUBATION): inactive; negative
- mutagenic call (Test System: AMES SALMONELLA TYPHIMURIUM, Strain/Indicator: TA98, Metabolic Activation: NONE, Method: FLUCTUATION (MICROTITER)): inactive; negative
- mutagenic call (Test System: AMES SALMONELLA TYPHIMURIUM, Strain/Indicator: TA98, Metabolic Activation: NONE, Method: PREINCUBATION): inactive; negative
- mutagenic call (Test System: AMES SALMONELLA TYPHIMURIUM, Strain/Indicator: TA98, Metabolic Activation: RAT LIVER S-9, AROCLOR 1254, Method: FLUCTUATION (MICROTITER)): inactive; negative
- mutagenic call (Test System: AMES SALMONELLA TYPHIMURIUM, Strain/Indicator: TA98, Metabolic Activation: RAT, LIVER, S-9, AROCLOR 1254 (10%), Method: PREINCUBATION): inactive; negative
- mutagenic call (Test System: AMES SALMONELLA TYPHIMURIUM, Strain/Indicator: TA100, Metabolic Activation: HAMSTER, LIVER, S-9, AROCLOR 1254 (10%), Method: PREINCUBATION): active; positive
- mutagenic call (Test System: AMES SALMONELLA TYPHIMURIUM, Strain/Indicator: TA100, Metabolic Activation: NONE, Method: PREINCUBATION): inactive; negative
- mutagenic call (Test System: AMES SALMONELLA TYPHIMURIUM, Strain/Indicator: TA1535, Metabolic Activation: HAMSTER, LIVER, S-9, AROCLOR 1254 (10%), Method: PREINCUBATION): inactive; negative
- mutagenic call (Test System: AMES SALMONELLA TYPHIMURIUM, Strain/Indicator: TA1535, Metabolic Activation: NONE, Method: PREINCUBATION): inactive; negative
- mutagenic call (Test System: AMES SALMONELLA TYPHIMURIUM, Strain/Indicator: TA1535, Metabolic Activation: RAT, LIVER, S-9, AROCLOR 1254 (10%), Method: PREINCUBATION): inactive; negative
- mutagenic call (Test System: AMES SALMONELLA TYPHIMURIUM, Strain/Indicator: TA1537, Metabolic Activation: HAMSTER, LIVER, S-9, AROCLOR 1254 (10%), Method: PREINCUBATION): inactive; negative
- mutagenic call (Test System: AMES SALMONELLA TYPHIMURIUM, Strain/Indicator: TA1537, Metabolic Activation: NONE, Method: FLUCTUATION (MICROTITER)): inactive; negative
- mutagenic call (Test System: AMES SALMONELLA TYPHIMURIUM, Strain/Indicator: TA1537, Metabolic Activation: NONE, Method: PREINCUBATION): inactive; negative
- mutagenic call (Test System: AMES SALMONELLA TYPHIMURIUM, Strain/Indicator: TA1537, Metabolic Activation: RAT LIVER S-9, AROCLOR 1254, Method: FLUCTUATION (MICROTITER)): inactive; negative
- mutagenic call (Test System: AMES SALMONELLA TYPHIMURIUM, Strain/Indicator: TA1537, Metabolic Activation: RAT, LIVER, S-9, AROCLOR 1254 (10%), Method: PREINCUBATION): inactive; negative
- mutagenic call (Test System: AMES SALMONELLA TYPHIMURIUM, Strain/Indicator: TA7001, Metabolic Activation: NONE, Method: FLUCTUATION (MICROTITER)): inactive; negative
- mutagenic call (Test System: AMES SALMONELLA TYPHIMURIUM, Strain/Indicator: TA7001, Metabolic Activation: RAT LIVER S-9, AROCLOR 1254, Method: FLUCTUATION (MICROTITER)): inactive; negative
- mutagenic call (Test System: AMES SALMONELLA TYPHIMURIUM, Strain/Indicator: TA7002, Metabolic Activation: NONE, Method: FLUCTUATION (MICROTITER)): inactive; negative
- mutagenic call (Test System: AMES SALMONELLA TYPHIMURIUM, Strain/Indicator: TA7002, Metabolic Activation: RAT LIVER S-9, AROCLOR 1254, Method: FLUCTUATION (MICROTITER)): active; positive
- mutagenic call (Test System: AMES SALMONELLA TYPHIMURIUM, Strain/Indicator: TA7003, Metabolic Activation: NONE, Method: FLUCTUATION (MICROTITER)): inactive; negative
- mutagenic call (Test System: AMES SALMONELLA TYPHIMURIUM, Strain/Indicator: TA7003, Metabolic Activation: RAT LIVER S-9, AROCLOR 1254, Method: FLUCTUATION (MICROTITER)): inactive; negative
- mutagenic call (Test System: AMES SALMONELLA TYPHIMURIUM, Strain/Indicator: TA7004, Metabolic Activation: NONE, Method: FLUCTUATION (MICROTITER)): inactive; negative
- mutagenic call (Test System: AMES SALMONELLA TYPHIMURIUM, Strain/Indicator: TA7004, Metabolic Activation: RAT LIVER S-9, AROCLOR 1254, Method: FLUCTUATION (MICROTITER)): inactive; negative
- mutagenic call (Test System: AMES SALMONELLA TYPHIMURIUM, Strain/Indicator: TA7005, Metabolic Activation: NONE, Method: FLUCTUATION (MICROTITER)): inactive; negative
- mutagenic call (Test System: AMES SALMONELLA TYPHIMURIUM, Strain/Indicator: TA7005, Metabolic Activation: RAT LIVER S-9, AROCLOR 1254, Method: FLUCTUATION (MICROTITER)): inactive; negative
- mutagenic call (Test System: AMES SALMONELLA TYPHIMURIUM, Strain/Indicator: TA7006, Metabolic Activation: NONE, Method: FLUCTUATION (MICROTITER)): inactive; negative
- mutagenic call (Test System: AMES SALMONELLA TYPHIMURIUM, Strain/Indicator: TA7006, Metabolic Activation: RAT LIVER S-9, AROCLOR 1254, Method: FLUCTUATION (MICROTITER)): inactive; negative
- mutagenic call (Test System: UDS HUMAN HEPATOCYTES, Strain/Indicator: THY INCORP, Metabolic Activation: NONE, Method: AUTORADIOGRAPHY): inactive; negative

Compound: COc1cc(NS(C)(=O)=O)ccc1Nc1c2ccccc2nc2ccc(N=[N+]=[N-])cc12
- mutagenic call (Test System: AMES SALMONELLA TYPHIMURIUM, Strain/Indicator: TA1537, Metabolic Activation: NONE, Method: STANDARD PLATE): active; positive

Compound: CC(O)c1cc2ccc3cccc4ccc(c1)c2c34 (stereo not drawn)
- mutagenic call (Test System: AMES SALMONELLA TYPHIMURIUM, Strain/Indicator: TA98, Metabolic Activation: HUMAN, LIVER, CYTOSOL, PAPS, Method: PREINCUBATION): active; positive
